Here are results for 88 molecules from a melting point compilation (Tetko et al.; mined from patent text by program, amines drawn as free bases though some values may be those of a salt).

One may read the melting point as the temperature of the solid-liquid transition.

As to `Cc1cnc(-c2ccncc2)nc1N`, the melting point lay within 210 to 213 °C. Molecule `O=C(O)C(=O)CC(=O)c1cccn1Cc1cccc(Cl)c1` registered a melting point of 159 to 161 °C.

`Cn1ncc2c1-c1c(Oc3cc4c(cc3[N+](=O)[O-])OCO4)sc(C(N)=O)c1CC2` had a melting point of 230 to 231 °C. Under `CCCC(=O)OCC(=O)C1(OC(=O)CCC)CCC2C3CC(C)C4=CC(=O)CCC4(C)C3C(O)CC21C` (stereo not drawn) stands 103 °C; under `CCOC(COC1CC2C3CCC4=CC(=O)CCC4(C)C3(F)C(O)CC2(C)C1(O)C(=O)CO)OCC` (stereo not drawn), 208 to 210 °C; under `O=c1c2ccccc2oc2cc(OCC3CO3)ccc12` (stereo not drawn), 157 to 158 °C. Under `O=C1c2ccccc2-n2cnc(Cl)c2[C@@H]2CCN12` stands 210 to 214 °C; under `Cc1ccc(C2SC3(CCN(CCCC(=O)c4ccc(F)cc4)CC3)c3ccccc32)cc1` (stereo not drawn), 134 to 135 °C; under `CC(C)(C)OC(=O)c1ncn2c1cc(N1CCN(C(=O)OC(C)(C)C)CC1)c1cc(Cl)ccc12`, 246 to 247 °C.

`CCCC[C@H](NC(=O)[C@H](CC(C)C)NC(=O)OCc1ccc(F)cc1)C(=O)CSCc1ccco1` displayed a melting point of 67 to 68 °C. In the case of `CC(C)(C)NS(=O)(=O)Cl` it was 28 to 30 °C.

Consider `Cc1nc(-c2ccc(Br)cc2)n(-c2ccc(S(C)(=O)=O)cc2)n1`, for which the melting point is 208 to 209 °C. In the case of `CCCCCCCCCCCCCCCC(=O)N[C@@H](Cc1ccc(O)cc1)C(=O)OC` it was 100 °C. As for `NC(=O)Nc1cccc2c1C(=O)c1c-2n[nH]c1-c1ccc(N2CCNCC2)cc1`, the melting point was found to be 257 °C. Under `CN(Cc1ccc[nH]1)C1CCCN(C(=O)c2ccc(Nc3nccc(Nc4ccc(F)cc4)n3)cc2)C1` (stereo not drawn) stands 148 to 151 °C. The molecule `CN1C(=O)N(CCC(NS(=O)(=O)c2ccc(-c3ccc(Cl)cc3)cc2)C(=O)NO)C(=O)C1(C)C` (stereo not drawn) yielded a melting point of 117 to 120 °C.

`O=C(c1ccc(Br)cc1)c1ccc(N2CCOCC2)cc1` returned a melting point of 178 to 179 °C.

`O=c1n(O)ccn1Cc1ccc(OCc2ccccc2)cc1` registered a melting point of more than 175 °C. Under `O=C1NC(=O)C2CCCCC12` (stereo not drawn) stands 132 to 136 °C. As to `Cc1cc(C)c2cc(C3CCNC(C)C3)sc2c1` (stereo not drawn), the melting point was 52 to 57 °C.

With `OC(c1nccn1CCc1ccccc1)C1CCNCC1` (stereo not drawn), the melting point came out at 145 °C. Under `CC(=O)C1C(C)CC2C3CCC4=CCC=CC4(C)C3CCC21C` (stereo not drawn) stands 175 °C. Under `O=C(O)c1cnc(Nc2cccc(C(F)(F)F)c2)[nH]c1=O` stands 252 to 254 °C; under `O=C(OCC(F)(F)C(F)C(F)(F)F)C(F)CF` (stereo not drawn), 84 to 86 °C; under `CCC(CSC#N)Nc1ccc(Cl)cc1[N+](=O)[O-]` (stereo not drawn), 126 to 128 °C.

`Oc1ccc(-c2nc3cc(O)c(Br)cc3o2)cc1F`: the melting point was 224 to 226 °C. `CC(=O)OCc1cc(O)c2c(c1)C(=O)c1cccc(C(C)=O)c1C2=O` returned a melting point of 190 to 191 °C. Under `N#Cc1ccccc1CN1CCSC1=O` stands 116 to 117 °C; under `CCCCCCCCCCCCCCCCCCC(N)CN` (stereo not drawn), 98 to 101 °C.

Regarding `O=C(O)c1ccc(NCCOc2ccc(Cl)cc2Cl)cc1`, the melting point was 203 to 205 °C. In the case of `O=C(CCC(=O)N(CCCOc1ccc(C(=O)O)cc1)c1ccc(Cl)cc1)Nc1ccc(Cl)cc1` it was 197 to 201 °C; in that of `O=S(=O)(c1ccc(F)cc1)N1CCOCC1`, 106 to 107 °C; in that of `C[C@H]1[C@H](O)C(F)(F)C(=O)N1c1ccc(C#N)c(Cl)c1`, 133 to 139 °C.

`CC(C)(C)NC(=O)c1nn(-c2ccc(F)cc2)c2c1C1CCC2CC1` returned a melting point of 190 to 193 °C. Under `O=C(CCC(=O)N1CCC[C@H]1C(=O)O)c1cccs1` stands 100 to 102 °C.

On to `CCOc1cscc1C=O`, for which the melting point fell in the range of 42 to 45 °C. Under `COC(=O)c1ccccc1-c1cc(-c2ccccn2)on1` stands 54 to 57 °C.

Turning to `CON1C(C)(C)CC(OC(=O)c2ccc3nn(-c4cc(C(C)(C)CC(C)(C)C)cc(C(C)(C)c5ccccc5)c4O)nc3c2)CC1(C)C`, the melting point lay in the range of 84 to 90 °C. `CC1=C(C(=O)OC(C)C)C(c2cccc(Cl)c2Cl)N(C(=O)OC(C)C)C(=S)N1` (stereo not drawn) registered a melting point of 179 to 181 °C. Under `COc1cc(C(=O)N2CCC(CCN3CCC(Nc4nc5ccccc5n4Cc4nccn4Cc4ccccc4)CC3)(c3ccc(F)cc3)C2)cc(OC)c1OC` (stereo not drawn) stands 95 to 100 °C; under `C=CCOc1nc(N)c2ccccc2n1`, 105 to 110 °C. In the case of `CCCCC(=O)c1cc2n(c1)CCc1ccccc1C2=O` it was 135 to 136 °C; in that of `CCC(=O)Nc1c(N)cc(Br)cc1OCc1ccccc1`, 198 to 201 °C. `COc1ccccc1-c1ccc(C(=O)N2Cc3ccc(C(=O)NCc4cccnc4)n3Cc3ccccc32)cc1C` yielded a melting point of 119 to 124 °C. In the case of `c1ccc(Cc2ccc(-c3ccccc3)[nH]2)cc1` it was 82 to 84 °C; in that of `O=C(O)c1ccc(-c2c3ccccc3nn2Cc2ccc(F)cc2)cc1`, 237 to 239 °C; in that of `COc1ccccc1SCC(O)CN(C)Cc1cc2c(=O)c(C(=O)NCc3ccc(Cl)cc3)cn(C)c2o1` (stereo not drawn), 145 to 147 °C. In the case of `O=C1N(CC2CCCO2)c2ccccc2C12COc1cc3c(cc12)CCCO3` (stereo not drawn) it was 151 to 156 °C. In the case of `C=CCC(Cc1ccc(OC)c(OCCc2ccccc2)c1)NC(=O)OC(C)(C)C` (stereo not drawn) it was 94.5 to 95.3 °C; in that of `CCCN(CCC)CCc1ccc(O)c2nc[nH]c12`, 135 to 139 °C. As for `Cc1ccn2c(-c3ccnc(-c4ccc(OCC(N)=O)cc4)c3)c(-c3cccc(C)n3)nc2c1`, the melting point is 213 °C. Under `CCCCNC1=NS(=O)(=O)c2sc(Cl)cc2N1` stands 218 to 219 °C; under `O=C1NN=C(c2ccc3c(c2)CCN(C2CCC2)CC3)C2CC12` (stereo not drawn), 129 to 132 °C. Under `COc1cccc2c1CCc1nc(-c3ccncc3)oc1-2` stands 158 °C; under `CNS(=O)(=O)CC(=O)c1cc(OC)ccc1N`, 117 to 118 °C; under `CC(C)(C)COc1cccc(C[C@H]2NC(=O)O[C@H]2c2cccc(Cl)c2)c1` (racemic), 141 to 142 °C. Molecule `NC(=NCC(F)(F)F)Nc1ccnc(CSCCNc2nc(N)n[nH]2)n1` displayed a melting point of 199 to 201 °C. Under `CCOC(=O)C1CCN(Cc2c[nH]c3cccc(F)c23)CC1` stands 96 to 105 °C; under `Cc1ccc(C(=C(C=CC(O)CC(=O)CC(=O)OC(C)(C)C)c2nnnn2C)c2ccc(C)cc2F)c(F)c1` (stereo not drawn), 55 to 63 °C; under `COc1ccc2ccc(C(=O)NCc3ccccc3)c(OC(C)C)c2c1`, 88 to 90 °C. In the case of `COc1ccc(Cc2nc3c(N)nc4ccccc4c3n2CCCCNS(C)(=O)=O)cc1` it was 78.1 to 79.5 °C; in that of `O=C(Oc1ccccc1)OC1c2nccnc2C(=O)N1c1ccc(Cl)cn1` (stereo not drawn), 193 °C; in that of `NC1=NC(N)(c2ccc(S(=O)(=O)NN3CCOCC3)cc2)NC=N1` (stereo not drawn), more than 260 °C. In the case of `CCOC(=O)CSc1nc(Cl)cc(Nc2ccc(OC)cc2)n1` it was 96 to 97.5 °C.

`N#CCc1cc(Cl)c(C(=O)c2ccc(Cl)cc2)[nH]1` gave a melting point of 194 to 197 °C. Under `CN(C)CCN1C(=O)c2ccc3[nH]c4ccc(N)cc4c3c2C1=O` stands 217 to 218 °C; under `O=S(=O)(c1ccccc1)N1CCCC1c1ccc(F)cc1` (racemic), 100 °C.

As to `COc1ccc(C2(C#Cc3ccnc(S(C)(=O)=O)n3)CCC(=O)CC2)cc1OC1CCCC1`, the melting point is 60 to 64 °C. Under `Cn1cnc(COc2nc3c(nnn3-c3ccccc3)c3ccccc23)n1` stands 189 to 190 °C; under `O=C(O)Cc1cc(C(=O)C=Cc2ccc(Cl)cc2)ccc1O`, 244 °C; under `CN1Cc2c(-c3noc(CCl)n3)ncn2-c2ccc(F)c(Cl)c2C1=O`, 215 to 218 °C. Under `CC(Cc1ccc(C(=O)N[C@@H](CCC(=O)O)C(=O)O)cc1)C1CNc2nc(N)nc(O)c2C1` (stereo partly drawn) stands more than 250 °C; under `Cc1ccc(N2CCc3ccccc32)c([N+](=O)[O-])c1`, 93 to 95 °C; under `COC(=O)CCNC(=O)c1ccc2c(c1)nc(-c1ccc(C(=N)N)cc1)n2CCC(c1ccccc1)c1ccccc1`, more than 200 °C.

For the molecule `CCCCCc1cnc(N2CCC(c3ccc(COc4ccc(S(C)(=O)=O)cc4)nc3)CC2)nc1`, the melting point is 154 to 157 °C.

`NC(CCOc1ccncc1)C(=O)c1ccccc1CO` (stereo not drawn) had a melting point of 108 to 109 °C. With `Cc1c(Sc2ccc(Cl)cc2)nn(-c2ccccc2)c(=O)c1C#N`, the melting point fell in the range of 180 to 182 °C.

As for `CC(=O)OC1CSC(Oc2cncc(-c3ccc(C)c(F)c3)c2)C(OC(C)=O)C1OC(C)=O` (stereo not drawn), the melting point amounted to 159 °C. Under `O=C(O)C(=O)c1ccc(OCCc2ccccc2)cc1` stands 72 to 73 °C. As to `O=C1CCC(N2Cc3c(OCc4ccc(CN5CCN(c6ncccn6)CC5)cc4)cccc3C2=O)C(=O)N1` (stereo not drawn), the melting point lay within 142 to 144 °C. Under `CSC1=NC(=O)C(=Cc2cc(C(C)(C)C)c(O)c(C(C)(C)C)c2)N1` stands 248 to 249 °C; under `CC1(C(F)(F)F)C(=O)NC(=O)NC1=O`, 205 to 206 °C. In the case of `CCOc1ccc(CN2C(=O)SC(CCCC#Cc3ccc(Cl)cc3)(S(=O)(=O)c3ccc(C)cc3)C2=O)c(OCC)c1` (stereo not drawn) it was 151 to 153 °C.

With `CCCN(CCC)C(=O)Cn1c(-c2ccc(C(F)(F)F)cc2)nc2cccnc21`, the melting point fell in the range of 138 to 139 °C. Regarding `COc1cccc(C(=O)N(C)C)c1-c1ccccc1`, the melting point lay within 83 to 84 °C. In the case of `COc1c(Cl)ccc(-c2cc(N)c(Cl)c(C(=O)NOC(C)C)n2)c1F` it was 190 to 193 °C; in that of `C=CCO/N=C(/C(=O)O)c1ccc(OCCOc2ccc3ccccc3c2)s1`, 106 to 108 °C; in that of `CC(=O)Nc1ccc([N+](=O)[O-])cc1OC[Si](C)(C)C`, 128 °C.
